Experimental data as given in PMC9179154, “Identification of acetylated diether lipids in halophilic Archaea” (MicrobiologyOpen, 2022).

Target: T1, hvYvoF (YvoF from Haloferax volcanii) (Haloferax volcanii, UniProt D4GZM3)
T1 construct: full length, C-terminal His6 tag, pTA1228 vector, NdeI/XhoI; homologous expression in H. volcanii H1424, IMAC; printed cloning primers encode N-terminus MTDDDAAP and C-terminus DETDGA before LE of the XhoI site
Experiment: […]-GGG acetylation, TLC and autoradiography
Format: biochemical
Settings: acetyl-CoA 0.25 mM, MgCl2 10 mM, 1300 mM NaCl, 0.2% Tween80, pH 8.0, 40 °C; labelled compound

T1 sequence (D4GZM3 entry or part of it): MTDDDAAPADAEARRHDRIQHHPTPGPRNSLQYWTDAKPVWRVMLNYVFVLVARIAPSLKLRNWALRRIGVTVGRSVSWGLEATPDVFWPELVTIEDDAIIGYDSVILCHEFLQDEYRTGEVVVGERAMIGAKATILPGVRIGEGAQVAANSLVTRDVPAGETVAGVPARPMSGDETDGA

CC(C)=CCC/C(C)=C/CC/C(C)=C/CC/C(C)=C/COC[C@H](O)CO [GGG, geranylgeranylglycerol]
14C-GGG acetylation, TLC and autoradiography: GGG was gradually diacetylated (to Ac2‐GGG) by hvYvoF with increasing incubation time
